Experimental data: patent publication EP2165698B1, “Cosmetic composition designed to protect damaged skin” (Universkin, priority 2008, dated 2016)
Where a SMILES comes first, the peptide text is derived from it.

How the values were obtained:
[1] = test system: fibroblastes de lignée humaine; assay: Production of extracellular matrix (MEC) proteins by fibroblasts, immunofluorescence / confocal microscopy; settings: tripeptide-1 à 10^-7M vs culture without peptide
From the text: Exemple 1 Etude du tripeptide-1® sur la production de protéines de la MEC par les fibroblastes par immunofluorescence.
• ▪ Matériel : fibroblastes de lignée humaine. • ▪ Protocole : les fibroblastes sont mis en culture en présence ou en absence du tripeptide-1® à 10^-7M. • ▪ Etude microscopique par microscopie confocale.

[2] = test system: Fibroblastes de lignée MRC5
[3] = test system: kératinocytes de lignée NCTC

**Q.** Which results are given for `NCCCC[C@H](NC(=O)[C@H](Cc1c[nH]cn1)NC(=O)CN)C(=O)O` [tripeptide-1, H-Gly-His-Lys-OH] (H-Gly-His-Lys-OH)?
**A.** AUGMENTATION % - Collagène de type I [1]: + 305%; AUGMENTATION % - Collagène de type II [1]: + 105%; AUGMENTATION % - Elastine [1]: + 15%; AUGMENTATION % - Fibronectine [1]: + 155%; AUGMENTATION % - Laminine [1]: + 85%

**Q.** How did the “acide alpha-linolénique dans le surnageant” value [2] turn out when `CC/C=C\C/C=C\C/C=C\CCCCCCCC(=O)O` [acide alpha-linolénique] was run?
**A.** The value was “plus faible quantité que la quantité de départ”.

**Q.** What about the “acides EPA et DHA dans le milieu surnageant” value [2] of the same compound?
**A.** Its value is “Apparition des acides EPA et DHA”.

**Q.** And the “acide EPA dans les cellules de kératinocytes” value [3]?
**A.** The value was “apparition de l'acide EPA”.

**Q.** And the “acide alpha-linolénique dans le surnageant” value [3]?
**A.** Its value is “aucune trace”.

**Q.** What about the “acide alpha-linolénique dans les cellules de kératinocytes” value [3] of the same compound?
**A.** Its value is “quantités importantes”.

**Q.** And the “acides EPA et DHA dans le surnageant” value [3]?
**A.** Its value is “Apparition des acides EPA et DHA”.
